Experimental data taken from US20250114386A1, “COMBINATION OF A GLYCOSYLATION INHIBITOR WITH ONE CAR CELL THERAPY FOR TREATING CANCER” (OSPEDALE SAN RAFFAELE S.R.L., priority 2018, published 2025).
“Also recorded” adds a separate entry of the source.

Columns and labels:
[1] = tested on: T3M4 and PT45 pancreatic tumour cells; experiment: In vitro co-culture killing assay with CD44v6 CAR-T cells; format: cell-based
Procedure: (§1) CEA or CD44v6 CAR-T cells from healthy donors were co-cultured at 1:5, 1:10, 1:25 E:T ratios with target cells in the absence of IL-7 and IL-15. T cells transduced with an irrelevant CAR (CD19 CAR T) were used as control. After 24 h or 96 h, co-cultures were analysed by FACS using Flow-Count Fluorospheres (BeckmanCoulter) and target cell killing, expressed as Elimination Index, was calculated as follows: 1−(number of residual target cells with experimental CAR-T cells/number of residual target with irrelevant CAR-T cells). In co-culture assays combining CAR-T cells with 2DG, target cells were exposed to 4 mM 2DG for 48 h before being washed, co-cultured with experimental or irrelevant CAR-T cells and analysed as above. In these experiments, the Elimination Index of 2DG alone was calculated as follows: 1−(number of target cells cultivated in medium supplemented with 2DG/number of target cells cultivated in medium alone). Co-culture of Jurkat CAR-TPR and tumour cells was performed at 1:1 E:T ratio. As control, Jurkat CAR-TPR cells were treated with either 50 ng/mL of phorbol myristate acetate (PMA) or 1 g/mL of Ionomycin or a combination of the two. Upregulation of fluorescence was assessed after 24 hours

[2] = tested on: T3M4 pancreatic tumour cells; experiment: Lactate production assay (glycolysis); format: cell-based; details: low doses of 2DG, 48 h
Procedure: Lactate production was assessed after 48 hours of 2DG treatment at the doses of 2, 4, 8, 16 or 64 mM 2DG using the Lactate-Glo assay (Promega) according to the manufacturer's instructions.

[3] = tested on: 5637, H1975 and PC9 cells; experiment: In vitro co-culture killing assay, other tumour types; format: cell-based; details: 4 mM 2DG 48 hours before co-culture
Procedure: as §1

[4] = tested on: T3M4 pancreatic tumour cells; experiment: Surface expression of beta-1 integrin and CD44v6 by FACS; format: cell-based; details: 4 mM 2DG, 48 hours
Procedure: (§2) The inventors used mAbs specific for human CD44v6 (e-Bioscience), CD3, CD45, NGFR, LAG3 (BD Bioscience), HLA-DR, PD1, TIM3, (Biolegend), CD57 (Miltenyi Biotec). To determine cell vitality, 7-Aminoactinomicin D (7-AAD), AnnexinV or DAPI reagents were used. For LV transduced tumour cells, GFP expression was analysed by direct fluorescence. Samples were run through a fluorescence-activated cell sorting (FACS) Canto flow cytometer (BD Biosciences) and data were analysed with the FlowJo software (Tree Star, Inc.). For branched N-glycans expression analysis, cells were incubated with biotinylated Phaseolus vulgaris Leukoagglutinin (PHA-L; Caderlane) for 1 hour according to manufacturer's instructions, washed and incubated with PE-conjugated streptavidin and analysed by flow cytometry.

[5] = tested on: T3M4 pancreatic adenocarcinoma xenograft; experiment: In vivo efficacy, pancreatic adenocarcinoma xenograft mouse model; design: species or system NSG mice
Procedure: All experiments were approved by the Institutional Animal Care and Use Committee (IACUC) of San Raffaele University Hospital and Scientific Institute and by the Italian Governmental Health Institute (Rome, Italy). NSG mice (NOD.Cg-Prkdcscid Il2rgtm1Wj1) were obtained from the Jackson Laboratories and kept in a specific-pathogen-free (SPF) facility within individually ventilated cages. […] At day […] and 7 from tumour engraftment, when the tumour burden was high, mice were injected intraperitoneally (i.p.) with 500 mg/kg 2DG. At day 7 mice were infused intravenously (i.v.) with 5×10^5 of either CD44v6 or CD19 CAR T cells as control. In another set of experiments, mice were treated with 500 mg/kg 2DG at day 2 and 3 and received 10×10^5 of either CD44v6 or CD19 CAR T cells at day 3, when the tumour burden was low. Tumour growth was monitored by bioluminescence assay using the QUANTI-Luc detection reagent (InvivoGen) and expressed as relative light units (RLUs), according to the manufacturer instructions. Mice were sacrificed when RLUs were >10^6.

[6] = tested on: T3M4 pancreatic tumour cells; experiment: Tumour cell survival (7-AAD) and proliferation (CFSE) after 2DG; format: cell-based; details: low doses of 2DG (4 mM, 48 hours)
Procedure: (§3) For dose assessment, tumour cells were exposed to 2, 4, 8, 16 or 64 mM 2DG (D8375, Sigma-Aldrich) and, after 48 h, absolute cell numbers and percentages of necrotic and proliferating cells were determined by FACS using Flow-Count Fluorospheres (BeckmanCoulter), 7-AAD and CFSE, respectively. For pharmacokinetic studies, tumour cells were treated with 4 mM 2DG and surface N-glycosylation was assessed by PHA-L staining at different time points from treatment or from wash-out to assess the kinetic of de-glycosylation and glycosylation, respectively. For safety studies, buffy coat cells were treated with 4 mM 2DG for 18 hours in the presence of IL-2 (100 IU/mL; Chiron), IL-21 (10 ng/ml; Peprotech) and IL-15 (5 ng/mL; Peprotech) before assessment of the glyco-phenotype by PHA-L staining and of cell viability by 7aad/AnnexinV staining.

[7] = tested on: PT45, BxPC3 and T3M4 pancreatic tumour cells; experiment: In vitro co-culture killing assay with CEA CAR-T cells; format: cell-based
Procedure: as §1

[8] = tested on: human primary keratinocytes; experiment: Primary keratinocytes: western blot and co-culture with CD44v6 CAR-T cells; format: cell-based
Procedure: as §1, with “As control, Jurkat CAR-TPR cells were treated with either 50 ng/mL of phorbol myristate acetate (PMA) or 1 g/mL of Ionomycin or a combination of the two.” left out
Tumour cells or healthy primary keratinocytes were treated with either medium alone or supplemented with 4 mM 2DG for 48 h, lysed and subjected to SDS polyacrylamide gel electrophoresys. De-glycosylation was assessed as molecular weight shift. […]

[9] = tested on: T3M4 pancreatic tumour cells; experiment: Western blot / biotin-enrichment assay of protein de-glycosylation; format: cell-based
Procedure: […] De-glycosylation was assessed as molecular weight shift. For selective cell membrane protein analysis, biotinilation assay was performed according to manufacturer instructions (Thermo Scientific). Treatment of cell lysates with PNGase F (NEB, P0704) was performed as recommended by the manufacturer's instructions.

[10] = 2DG alone or combined with chemotherapy and radiotherapy; cited from earlier work
[11] = tested on: healthy peripheral blood mononuclear cells (PBMCs); experiment: Safety study on buffy coat cells (PHA-L staining, 7aad/AnnexinV); format: cell-based; details: 4 mM 2DG, 18 hours
Procedure: as §3

[12] = tested on: T3M4 pancreatic tumour cells; experiment: PHA-L staining of surface N-glycosylation after 2DG treatment; format: cell-based
Procedure: as §3, §2

[13] = tested on: sulfation (PAPS formation); details: chlorate usually 10-30 mM; cited from earlier work
[14] = T3M4, tunicamycin 100 ng/ml, 48 h

Compound: tunicamycin
- CD44v6 CAR-T cell activation (CD69) after tunicamycin treatment of tumour cells [1, 14]: confirmed
- elimination of tumour cells by CD44v6 CAR-T cells after tunicamycin treatment [1, 14]: confirmed

Compound: O=CC[C@@H](O)[C@H](O)[C@H](O)CO [2DG, 2-Deoxy-D-glucose]
- inhibition of glycolysis (lactate production) [2]: unable to inhibit glycolysis
- elimination of highly glycosylated tumours by CD44v6 CAR-T cells after 2DG [3]: drastically increase the elimination
- surface expression levels of beta-1 integrin and CD44v6 [4]: maintained
- nature of the combined effect of 2DG and CD44v6 CAR-T cells ([1]; PT45 and T3M4): synergic
- individual antitumor activity of 2DG alone ([1]; PT45 and T3M4, 4 mM 2DG 48 h): lacking
- elimination of tumour cells by CD44v6 CAR-T cells after 2DG pre-treatment ([1]; PT45 and T3M4, 4 mM 2DG 48 h before co-culture): significantly increasing their elimination
- frequency of tumour-infiltrating CD44v6 CAR-T cells expressing exhaustion and senescence markers ([5]; at sacrifice, mice that received 2DG vs not): significantly lower frequency of cells expressing exhaustion and senescence markers
- antitumor effect of 2DG alone ([5]; high tumor burden): unable to mediate any antitumor effect alone
- less tumor with 2DG in mice receiving CAR-T cells ([5]; high tumor burden, at 7d, p<0,05): 5 fold
- antitumor benefit of 2DG in mice receiving CD44v6 CAR-T cells ([5]; high tumour burden (HTB) setting, 500 mg/kg 2DG i.p., low CAR-T cell dose): significantly benefited from 2DG administration
- tumour cell proliferation (CFSE dilution) [6]: no impact
- tumour cell viability (7AADpos cells) [6]: no impact on tumour cell viability
- cytokine release (IFNγ) by CEA CAR-T cells with 2DG-treated tumour cells ([7]; 24 hours after stimulation): increased
- recognition of CEAneg tumour cells by CEA CAR-T cells after 2DG pre-treatment ([7]; CEAneg PT45, 4 mM 2DG 48 hours): did not increase recognition
- elimination of CEApos tumour cells by CEA CAR-T cells after 2DG pre-treatment ([7]; CEApos BxPC3 and T3M4, 4 mM 2DG 48 hours): significantly improved the elimination
- CEA CAR-T cell activation (CD69, Jurkat TPR) with 2DG-treated tumour cells ([7]; T3M4, 4 mM 2DG): increased CAR-T cell activation
- increase of keratinocyte elimination by CD44v6 CAR-T cells ([8]; 2DG 48 hours before co-culture): failed
- keratinocyte glycosylation ([8]; 2DG 48 hours, same dose as for tumour cells): failed to inhibit keratinocyte glycosylation
- inhibition of N-glycosylation (western blot, beta-1 integrin) ([9]; 2DG 4 mM or 16 mM, 48 hours, total cell lysates): molecular-weight shift of beta-1 integrin
- de-glycosylated forms of beta-1 integrin and CD44v6 among surface proteins ([9]; biotin-enrichment western blot): clearly detected among surface proteins
- safety and tolerability in patients [10]: safe and well tolerated; also recorded: good tolerability
- PBMCs glycosylation (PHA-L staining) [11]: failed to interfere with PBMCs glycosylation
- viability of CD3+ T cells, CD19+ B cells, CD14+ monocytes and CD15+ granulocytes [11]: did not impact on the viability
- duration of de-glycosylation after washing out 2DG ([12]; 4 mM 2DG up to 48 hours, then wash-out): 24 h
- inhibition of N-glycosylation (binding to PHA-L) ([12]; 4 mM 2DG, 48 hours): reduced binding to PHA-L
- time at which de-glycosylation is detectable ([12]; 4 mM 2DG, PHA-L staining): ≤ 5 h

Compound: [O-][Cl+2]([O-])O [chlorate]
- inhibition of sulfation [13]: > 90%
